# Test results reported in patent US5698547A, “Cephalosporin antibiotics” (Microcide Pharmaceuticals, Inc., priority 1995, dated 1997).
# Where a name gives a salt, the structure may show the parent alone.
# Test system: S. aureus Col (Meth^R) (lac^-)
# Experiment: MIC by agar dilution, S. aureus Col (Meth^R) (lac^-)
# Format: cell-based
# Conditions: Staphylococcus aureus; agar dilution; S. aureus Col (Meth^R) (lac^-); read-out: MIC
# Method in brief: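 Log-phase isolates were spot-inoculated at about 10^4 cfu onto Mueller-Hinton agar carrying duplicate two-fold compound levels, 128 μg/mL to ≤0.25 μg/mL, following NCCLS (1991). Plates were read after 16-20 h at 35°-36° C. The lowest growth-inhibiting concentration gave the MIC (μg/ml).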
row,Structure (SMILES),MIC [µg/mL]
1,"COC(=O)c1ccccc1SC1=C(C(=O)O)N2C(=O)[C@@H](NC(=O)Cc3ccccc3)[C@H]2SC1 [Cmpd 19, (7R)-7-[(Phenylacetyl)amino]-3-(o-carbomethoxyphenylthio)-3-cephem-4-carboxylic acid]",4
2,"Nc1nc(/C(=N/OCCF)C(=O)N[C@@H]2C(=O)N3C(C(=O)O)=C(Sc4ccnn4-c4ccccc4)CS[C@H]23)c(Cl)s1 [Cmpd 98, (7R)-7-[(Z)-2-(2-amino-5-chlorothiazol-4-yl)-2-(2-fluoroethyloxyimino)acetamido]-3-(1-N-phenylpyrazol-5-ylthio)-3-cephem-4-carboxylic acid]",2
3,"O=C(Cc1ccccc1)N[C@@H]1C(=O)N2C(C(=O)O)=C(Sc3ccc(-c4ccccc4)cc3Br)CS[C@H]12 [Cmpd 11, (7R)-7-[(Phenylacetyl)amino]-3-(2-bromo-4-biphenylthio)-3-cephem-4-carboxylic acid]",1
4,"CCCCCC(=O)N[C@@H]1C(=O)N2C(C(=O)O)=C(Sc3ccnn3-c3ccccc3)CS[C@H]12 [Cmpd 109, (7R)-7-[(hexanoyl)amino]-3-(1-N-phenylpyrazol-5-ylthio)-3-cephem-4-carboxylic acid]",4
5,"O=C(Cc1ccccc1)N[C@@H]1C(=O)N2C(C(=O)O)=C(Sc3cccc4c3CCCC4)CS[C@H]12 [Cmpd 56, (7R)-7-[(Phenylacetyl)amino]-3-(5,6,7,8-tetrahydronaphthalen-1-ylthio)-3-cephem-4-carboxylic acid]",1
6,"N#Cc1ccccc1SC1=C(C(=O)O)N2C(=O)[C@@H](NC(=O)/C(=N\OC3CCCC3)c3csc(N)n3)[C@H]2SC1 [Cmpd 53, (7R)-7-[(Z)-2-(aminothiazol-4-yl)-2-(cyclopentyloxyimino)acetamido]-3-(2-cyanophenylthio)-3-cephem-4-carboxylic acid]",4
7,"Cn1cc[n+](Cc2ccoc2-c2ccccc2SC2=C(C(=O)[O-])N3C(=O)[C@@H](NC(=O)Cc4ccccc4)[C@H]3SC2)c1 [Cmpd 48, (7R)-7-[(Phenylacetyl)amino]-3-(2-(3-(N-methylimidazoliummethyl)furan-2-yl)phenylthio)-3-cephem-4-carboxylic acid]",4
8,"O=C(Cc1ccccc1)N[C@@H]1C(=O)N2C(C(=O)O)=C(Sc3ccc(Cl)cc3Cl)CS[C@H]12 [Cmpd 28, (7R)-7-[(Phenylacetyl)amino]-3-(2,4-dichlorophenylthio)-3-cephem-4-carboxylic acid]",1
9,"O=C(Cc1ccccc1)N[C@@H]1C(=O)N2C(C(=O)O)=C(Sc3ccc(CSC4=NCCN4)cc3I)CS[C@H]12 [Cmpd 59, (7R)-7-[(Phenylacetyl)amino]-3-(4-(2-imidazolin-2-ylthiomethyl)-2-iodophenylthio)-3-cephem-4-carboxylic acid]",2
10,"O=C(Cc1ccccc1)N[C@@H]1C(=O)N2C(C(=O)O)=C(Sc3ccc4ccccc4c3Br)CS[C@H]12 [Cmpd 57, (7R)-7-[(Phenylacetyl)amino]-3-(1-bromo-naphthalen-2-ylthio)-3-cephem-4-carboxylic acid]",0.5
11,"CN=C(N)SCc1ccccc1SC1=C(C(=O)O)N2C(=O)[C@@H](NC(=O)Cc3ccccc3)[C@H]2SC1 [Cmpd 76, (7R)-7-[(Phenylacetyl)amino]-3-(2-N-methylisothiouroniummethylphenylthio)-3-cephem-4-carboxylate, inner salt]",2
12,"COc1ccc(-n2nccc2SC2=C(C(=O)O)N3C(=O)[C@@H](NC(=O)Cc4ccccc4)[C@H]3SC2)cc1 [Cmpd 114, (7R)-7-[(Phenylacetyl)amino]-3-(1-N-(4-methoxyphenyl)pyrazol-5-ylthio)-3-cephem-4-carboxylic acid]",4
13,"O=C(Cc1ccccc1)N[C@@H]1C(=O)N2C(C(=O)O)=C(Sc3ccnn3-c3cccc([N+](=O)[O-])c3)CS[C@H]12 [Cmpd 113, (7R)-7-[(Phenylacetyl)amino]-3-(1-N-(3-nitrophenyl)pyrazol-5-ylthio)-3-cephem-4-carboxylic acid]",4
14,O=C1CNC(SCc2ccccc2SC2=C(C(=O)O)N3C(=O)[C@@H](NC(=O)Cc4ccccc4)[C@H]3SC2)=N1 [Cmpd 68],8
15,"N#Cc1ccc(-c2ccccc2SC2=C(C(=O)O)N3C(=O)[C@@H](NC(=O)Cc4ccccc4)[C@H]3SC2)cc1 [Cmpd 23, (7R)-7-[(Phenylacetyl)amino]-3-(2-(4-cyanophenyl)phenylthio)-3-cephem-4-carboxylic acid]",2
16,"CSCC(=O)N[C@@H]1C(=O)N2C(C(=O)O)=C(Sc3ccccc3CNC(=N)N)CS[C@H]12 [Cmpd 135, (7R)-7-[(Methylthioacetyl)amino]-3-(2-guanidiniummethylphenylthio)-3-cephem-4-carboxylate, inner salt]",8
17,"C[n+]1ccc(SCc2ccccc2SC2=C(C(=O)[O-])N3C(=O)[C@@H](NC(=O)Cc4ccccc4)[C@H]3SC2)cc1 [Cmpd 73, (7R)-7-[(Phenylacetyl)amino]-3-(2-(N-methylpyridin-4-ium)thiomethyl)phenylthio)-3-cephem-4-carboxylate, inner salt]",4
18,"N=C(NCCN1CCOCC1)SCc1ccc(SC2=C(C(=O)O)N3C(=O)[C@@H](NC(=O)Cc4ccccc4)[C@H]3SC2)c(I)c1 [Cmpd 61, (7R)-7-[(Phenylacetyl)amino]-3-(4-(N-morpholinoethyl)isothiouroniummethyl-2-iodophenylthio)-3-cephem-4-carboxylate, inner salt]",4
19,"O=C(Cc1ccccc1)N[C@@H]1C(=O)N2C(C(=O)O)=C(Sc3ccccc3-c3ccco3)CS[C@H]12 [Cmpd 27, (7R)-7-[(Phenylacetyl)amino]-3-(2-(2-furyl)phenylthio)-3-cephem-4-carboxylic acid]",1
20,"O=C(Cc1cccs1)N[C@@H]1C(=O)N2C(C(=O)O)=C(Sc3ccccc3Br)CS[C@H]12 [Cmpd 20, (7R)-7-[(2-Thienylacetyl)amino]-3-(o-bromophenylthio)-3-cephem-4-carboxylic acid]",0.5
21,"O=C(Cc1ccco1)N[C@@H]1C(=O)N2C(C(=O)O)=C(Sc3ccnn3-c3ccccc3)CS[C@H]12 [Cmpd 111, (7R)-7-[(2-furylacetyl)amino]-3-(1-N-phenylpyrazol-5-ylthio)-3-cephem-4-carboxylic acid]",8
22,"O=C(CSc1ccccc1)N[C@@H]1C(=O)N2C(C(=O)O)=C(Sc3cc(Cl)ccc3Cl)CS[C@H]12 [Cmpd 35, (7R)-7-[(Phenylthioacetyl)amino]-3-(2,5-dichlorophenylthio)-3-cephem-4-carboxylic acid]",0.5
23,"O=C(Cc1ccccc1)N[C@@H]1C(=O)N2C(C(=O)O)=C(Sc3nnnn3-c3ccccc3)CS[C@H]12 [Cmpd 94, (7R)-7-[(Phenylacetyl)amino]-3-(1-N-phenyltetrazol-5-ylthio)-3-cephem-4-carboxylic acid]",4
24,"O=C(Cc1ccccc1)N[C@@H]1C(=O)N2C(C(=O)O)=C(Sc3ccc(C(F)(F)F)cc3)CS[C@H]12 [Cmpd 40, (7R)-7-[(Phenylacetyl)amino]-3-(4-trifluoromethylphenylthio)-3-cephem-4-carboxylic acid]",4
25,"O=C(Cc1ccccc1)N[C@@H]1C(=O)N2C(C(=O)O)=C(Sc3cccc4oc5ccccc5c34)CS[C@H]12 [Cmpd 21, (7R)-7-[(Phenylacetyl)amino]-3-(dibenzofuranyl-1-thio)-3-cephem-4-carboxylic acid]",1
26,"CN(C)C(SCc1ccccc1SC1=C(C(=O)[O-])N2C(=O)[C@@H](NC(=O)Cc3ccccc3)[C@H]2SC1)=[N+](C)C [Cmpd 69, (7R)-7-[(Phenylacetyl)amino]-3-(2-tetramethylisothiouroniummethylphenylthio)-3-cephem-4-carboxylate, inner salt]",4
27,"CC(C)Oc1ccccc1SC1=C(C(=O)O)N2C(=O)[C@@H](NC(=O)Cc3ccccc3)[C@H]2SC1 [Cmpd 47, (7R)-7-[(Phenylacetyl)amino]-3-(2-isopropyloxyphenylthio)-3-cephem-4-carboxylic acid]",1
28,"COc1cccc(-n2nccc2SC2=C(C(=O)O)N3C(=O)[C@@H](NC(=O)Cc4ccccc4)[C@H]3SC2)c1 [Cmpd 117, (7R)-7-[(Phenylacetyl)amino]-3-(1-N-(3-methoxyphenyl)pyrazol-5-ylthio)-3-cephem-4-carboxylic acid]",8
29,"CC(=O)NC(=N)SCc1ccccc1SC1=C(C(=O)O)N2C(=O)[C@@H](NC(=O)Cc3ccccc3)[C@H]2SC1 [Cmpd 78, (7R)-7-[(Phenylacetyl)amino]-3-(2-N-acetylamidinothiomethylphenylthio)-3-cephem-4-carboxylic acid]",4
30,"N=C(N)SCc1ccccc1SC1=C(C(=O)O)N2C(=O)[C@@H](NC(=O)Cc3ccccc3)[C@H]2SC1 [Cmpd 64, (7R)-7-[(Phenylacetyl)amino]-3-(2-isothiouroniummethylphenylthio)-3-cephem-4-carboxylate, inner salt]",0.5
